We go through 30 molecules from patent US8546375B2, “(3-(4-(aminomethyl)phenoxy or phenylthio)azetidin-1-yl)(5-phenyl-1,3,4-oxadiazol-2-yl)methanone compounds” (AstraZeneca AB, priority 2010, dated 2013).

Test system in one data set: not given
Assay: not given
Conditions: not given
In the case of `Cc1cc(OC2CN(C(=O)c3nnc(-c4ccccc4)o3)C2)ccc1CN(C)C` [Example 21, (3-(4-((Dimethylamino)methyl)-3-methylphenoxy)azetidin-1-yl)(5-phenyl-1,3,4-oxadiazol-2-yl)methanone], the melting point came to 135 °C.

For a further data set, the target named is T1, Melanin Concentrating Hormone Receptor 1 (MCHR1) (Homo sapiens, UniProt Q99705).
T1 construct: expressed in transfected cells
T1 sequence (Q99705 whole entry): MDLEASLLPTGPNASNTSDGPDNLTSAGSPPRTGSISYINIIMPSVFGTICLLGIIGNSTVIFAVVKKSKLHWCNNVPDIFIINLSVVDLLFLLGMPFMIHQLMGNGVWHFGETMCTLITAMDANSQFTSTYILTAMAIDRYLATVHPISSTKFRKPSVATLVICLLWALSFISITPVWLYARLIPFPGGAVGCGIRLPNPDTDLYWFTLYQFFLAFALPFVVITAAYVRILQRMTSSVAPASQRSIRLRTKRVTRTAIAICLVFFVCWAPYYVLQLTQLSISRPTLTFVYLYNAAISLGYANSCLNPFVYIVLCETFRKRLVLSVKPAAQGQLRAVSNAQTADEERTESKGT
Put plainly: MCHR1 Receptor Activation Assay (GTPγ^35S). It is filed as biochemical. Conditions: read-out: GTPγ^35S IC50.
For `Cc1cc(OC2CN(C(=O)c3nnc(-c4ccccc4)o3)C2)ccc1CN(C)C` [Example 21, (3-(4-((Dimethylamino)methyl)-3-methylphenoxy)azetidin-1-yl)(5-phenyl-1,3,4-oxadiazol-2-yl)methanone], the IC50 amounted to 22 nM.
On the same count and under the same terms, then `COc1ccc(-c2nnc(C(=O)N3CC(Oc4ccc(CN5CCC(F)(CO)CC5)cc4)C3)o2)cc1` [Example 81, (3-(4-((4-Fluoro-4-(hydroxymethyl)piperidin-1-yl)methyl)phenoxy)azetidin-1-yl)(5-(4-methoxyphenyl)-1,3,4-oxadiazol-2-yl)methanone], with 25 nM; and `Cc1cc(CN2CCN(C)CC2)ccc1OC1CN(C(=O)c2nnc(-c3ccccc3)o2)C1` [Example 9, (3-(2-Methyl-4-((4-methylpiperazin-1-yl)methyl)phenoxy)azetidin-1-yl)(5-phenyl-1,3,4-oxadiazol-2-yl)methanone], with 44 nM.
Same read-out and setting: with `CCC1(O)CN(Cc2ccc(OC3CN(C(=O)c4nnc(-c5ccc(OC)cc5)o4)C3)c(C)c2)C1` [Example 72, (3-(4-((3-Ethyl-3-hydroxyazetidin-1-yl)methyl)-2-methylphenoxy)azetidin-1-yl)(5-(4-methoxyphenyl)-1,3,4-oxadiazol-2-yl)methanone] the figure was 15 nM; with `COc1cc(OC2CN(C(=O)c3nnc(-c4ccccc4)o3)C2)ccc1CN1CCOCC1` [Example 7, (3-(3-Methoxy-4-(morpholinomethyl)phenoxy)azetidin-1-yl)(5-phenyl-1,3,4-oxadiazol-2-yl)methanone], 21 nM.
For `CCC1(O)CN(Cc2ccc(OC3CN(C(=O)c4nnc(-c5ccccc5)o4)C3)c(C)c2)C1` [Example 74, (3-(4-((3-Ethyl-3-hydroxyazetidin-1-yl)methyl)-2-methylphenoxy)azetidin-1-yl)(5-phenyl-1,3,4-oxadiazol-2-yl)methanone], the concentration for half-maximal inhibition (IC50) amounted to 18 nM.
With `COc1ccc(-c2nnc(C(=O)N3CC(Oc4ccc(CN5CCC(CO)CC5)cc4)C3)o2)cc1` [Example 89, (3-(4-((4-(hydroxymethyl)piperidin-1-yl)methyl)phenoxy)azetidin-1-yl)(5-(4-methoxyphenyl)-1,3,4-oxadiazol-2-yl)methanone], the IC50 came to 22 nM.
In the case of `COc1ccc(-c2nnc(C(=O)N3CC(Oc4ccc(CN(C)C)cc4C)C3)o2)cc1` [Example 17, (3-(4-((Dimethylamino)methyl)-2-methylphenoxy)azetidin-1-yl)(5-(4-methoxyphenyl)-1,3,4-oxadiazol-2-yl)methanone], the IC50 was 25 nM.
On the same count and under the same terms, then `COc1ccc(-c2nnc(C(=O)N3CC(Oc4ccc(CN5CCN(C)CC5)cc4C)C3)o2)cc1` [Example 10, (5-(4-Methoxyphenyl)-1,3,4-oxadiazol-2-yl)(3-(2-methyl-4-((4-methylpiperazin-1-yl)methyl)phenoxy)azetidin-1-yl)methanone], with 41 nM.
Still for that read-out and setting: then `CN1CCN(Cc2ccc(OC3CN(C(=O)c4nnc(-c5ccccc5)o4)C3)cc2F)CC1` [Example 29, (3-(3-Fluoro-4-((4-methylpiperazin-1-yl)methyl)phenoxy)azetidin-1-yl)(5-phenyl-1,3,4-oxadiazol-2-yl)methanone], with 86 nM.
Same read-out and setting: with `CC1(CO)CCN(Cc2ccc(OC3CN(C(=O)c4nnc(-c5ccccc5)o4)C3)cc2)C1` (stereo not shown) [Example 85, (3-(4-((3-(hydroxymethyl)-3-methylpyrrolidin-1-yl)methyl)phenoxy)azetidin-1-yl)(5-phenyl-1,3,4-oxadiazol-2-yl)methanone] the figure was 19 nM.
As for `O=C(c1nnc(-c2ccccc2)o1)N1CC(Oc2ccc(CN3CCCC3)cc2)C1` [Example 3, (5-Phenyl-1,3,4-oxadiazol-2-yl)(3-(4-(pyrrolidin-1-ylmethyl)phenoxy)azetidin-1-yl)methanone], the IC50 was found to be 27 nM.
Same read-out and setting: then `Cc1ccc(-c2nnc(C(=O)N3CC(Oc4ccc(CN(C)C)cc4C)C3)o2)cc1` [Example 18, (3-(4-((Dimethylamino)methyl)-2-methylphenoxy)azetidin-1-yl)(5-p-tolyl-1,3,4-oxadiazol-2-yl)methanone], with 25 nM.
With `Cc1cc(CN2CCOCC2)ccc1OC1CN(C(=O)c2nnc(-c3ccc(Cl)cc3)o2)C1` [Example 15, (5-(4-Chlorophenyl)-1,3,4-oxadiazol-2-yl)(3-(2-methyl-4-(morpholinomethyl)phenoxy)azetidin-1-yl)methanone], the IC50 came out at 10 nM.
For the molecule `COc1ccc(-c2nnc(C(=O)N3CC(Oc4ccc(CN(C)C)cc4)C3)o2)cc1` [Example 38, (3-(4-((Dimethylamino)methyl)phenoxy)azetidin-1-yl)(5-(4-methoxyphenyl)-1,3,4-oxadiazol-2-yl)methanone], the IC50 turned out to be 27 nM.
For `O=C(c1nnc(-c2ccccc2)o1)N1CC(Oc2ccc(CN3CC(O)C3)cc2Cl)C1` [Example 58, (3-(2-Chloro-4-((3-hydroxyazetidin-1-yl)methyl)phenoxy)azetidin-1-yl)(5-phenyl-1,3,4-oxadiazol-2-yl)methanone], the IC50 was determined as 29 nM.
The same measure, in the same setting: then `COc1ccc(-c2nnc(C(=O)N3CC(Oc4ccc(CN(C)C)c(Cl)c4)C3)o2)cc1` [Example 47, (3-(3-Chloro-4-((dimethylamino)methyl)phenoxy)azetidin-1-yl)(5-(4-methoxyphenyl)-1,3,4-oxadiazol-2-yl)methanone], with 19 nM.
Same read-out and setting: then `Cc1cc(OC2CN(C(=O)c3nnc(-c4ccccc4)o3)C2)ccc1CN1CCC(C)(CO)CC1` [Example 69], with 22 nM.
For `COc1ccc(-c2nnc(C(=O)N3CC(Oc4ccc(CN(C)C)c(C)c4)C3)o2)cc1` [Example 20, (3-(4-((Dimethylamino)methyl)-3-methylphenoxy)azetidin-1-yl)(5-(4-methoxyphenyl)-1,3,4-oxadiazol-2-yl)methanone], the half-maximal inhibitory concentration (IC50) came out at 24 nM.
`Cc1ccc(-c2nnc(C(=O)N3CC(Oc4ccc(CN5CCN(C)CC5)cc4C)C3)o2)cc1` [Example 11, (3-(2-Methyl-4-((4-methylpiperazin-1-yl)methyl)phenoxy)azetidin-1-yl)(5-p-tolyl-1,3,4-oxadiazol-2-yl)methanone]: the IC50 worked out at 51 nM.
On the same count and under the same terms, then `CN(C)Cc1ccc(OC2CN(C(=O)c3nnc(-c4ccccc4)o3)C2)c(F)c1F` [Example 39, (3-(4-((Dimethylamino)methyl)-2,3-difluorophenoxy)azetidin-1-yl)(5-phenyl-1,3,4-oxadiazol-2-yl)methanone], with 49 nM; and `O=C(c1nnc(-c2ccc(Cl)cc2)o1)N1CC(Oc2ccc(CN3CCCC3)cc2)C1` [Example 1, (5-(4-Chlorophenyl)-1,3,4-oxadiazol-2-yl)(3-(4-(pyrrolidin-1-ylmethyl)phenoxy)azetidin-1-yl)methanone], with 7 nM; and `COc1ccc(-c2nnc(C(=O)N3CC(Oc4ccc(CN5CCC5)cc4)C3)o2)cc1` [Example 41, (3-(4-(Azetidin-1-ylmethyl)phenoxy)azetidin-1-yl)(5-(4-methoxyphenyl)-1,3,4-oxadiazol-2-yl)methanone], with 25 nM.
As to `COc1ccc(-c2nnc(C(=O)N3CC(Oc4ccc(CN5CCCC5)c(OC)c4C)C3)o2)cc1` [Example 52, (3-(3-Methoxy-2-methyl-4-(pyrrolidin-1-ylmethyl)phenoxy)azetidin-1-yl)(5-(4-methoxyphenyl)-1,3,4-oxadiazol-2-yl)methanone], the IC50 worked out at 24 nM.
Still for that read-out and setting: then `COc1ccc(-c2nnc(C(=O)N3CC(Oc4ccc(CN5CCC(C)(CO)C5)cc4C)C3)o2)cc1` (stereo not shown) [Example 90, (3-(4-((3-(hydroxymethyl)-3-methylpyrrolidin-1-yl)methyl)-2-methylphenoxy)azetidin-1-yl)(5-(4-methoxyphenyl)-1,3,4-oxadiazol-2-yl)methanone], with 16 nM; and `COC1CN(Cc2ccc(SC3CN(C(=O)c4nnc(-c5ccccc5)o4)C3)cc2)C1` [Example 62, (3-(4-((3-Methoxyazetidin-1-yl)methyl)phenylthio)azetidin-1-yl)(5-phenyl-1,3,4-oxadiazol-2-yl)methanone], with 13 nM.
In the case of `CNCc1ccc(OC2CN(C(=O)c3nnc(-c4ccccc4)o3)C2)cc1C` [Example 53, (3-(3-Methyl-4-((methylamino)methyl)phenoxy)azetidin-1-yl)(5-phenyl-1,3,4-oxadiazol-2-yl)methanone], the IC50 was found to be 28 nM.
Same read-out and setting: then `CC(=O)N1CCN(Cc2ccc(OC3CN(C(=O)c4nnc(-c5ccc(Cl)cc5)o4)C3)cc2)CC1` [Example 25, 1-(4-(4-(1-(5-(4-Chlorophenyl)-1,3,4-oxadiazole-2-carbonyl)azetidin-3-yloxy)benzyl)piperazin-1-yl)ethanone], with 34 nM; and `COc1ccc(-c2nnc(C(=O)N3CC(Oc4ccc(CN5CCC(C)(CO)CC5)cc4)C3)o2)cc1` [Example 83, (3-(4-((4-(Hydroxymethyl)-4-methylpiperidin-1-yl)methyl)phenoxy)azetidin-1-yl)(5-(4-methoxyphenyl)-1,3,4-oxadiazol-2-yl)methanone], with 25 nM.
`Cc1cc(OC2CN(C(=O)c3nnc(-c4ccc(OC(F)F)cc4)o3)C2)ccc1CN(C)C` [Example 43, (5-(4-(Difluoromethoxy)phenyl)-1,3,4-oxadiazol-2-yl)(3-(4-((dimethylamino)methyl)-3-methylphenoxy)azetidin-1-yl)methanone]: the IC50 amounted to 11 nM.

A word on the melting point: it is the temperature of the solid-liquid transition. Usually IC50 stands for the concentration at which inhibition is half-maximal.
